Each structure is given as a SMILES string. The source made the active and inactive calls. How the calls were made is not given here.

For this data set, the system named is rodent lifetime carcinogenesis bioassay, tumor incidence TD50. As to the kind of experiment: chronic cancer bioassays in animals – CPDB, compiled studies (AID 1745844).

Take `C1COCCO1`: the TD50 was 847 mg/kg/day (mouse, strain B6C3F1, females, in drinking water, site: any site (literature study), lesion: several types, types named in the paper, dosed 90 weeks, study length 90 weeks); 594 mg/kg/day (mouse, strain B6C3F1, females, in drinking water, site: liver, lesion: hepatocellular adenoma + hepatocellular carcinoma + neoplastic nodule, dosed 90 weeks, study length 90 weeks); 594 mg/kg/day (mouse, strain B6C3F1, females, in drinking water, site: liver, lesion: hepatocellular adenoma + hepatocellular carcinoma, dosed 90 weeks, study length 90 weeks); 938 mg/kg/day (mouse, strain B6C3F1, females, in drinking water, site: liver, lesion: hepatocellular carcinoma, dosed 90 weeks, study length 90 weeks); 71900 mg/kg/day (mouse, strain B6C3F1, females, in drinking water, site: lung, lesion: alveolar/bronchiolar adenoma + alveolar/bronchiolar carcinoma, dosed 90 weeks, study length 90 weeks); 3150 mg/kg/day (mouse, strain B6C3F1, males, in drinking water, site: all sites, lesion: hemangioma + hemangiosarcoma, dosed 90 weeks, study length 91 weeks). Also, the TD50 (mouse, strain B6C3F1, males, in drinking water, site: all sites, lesion: lymphoma, dosed 90 weeks, study length 91 weeks) was found to be 3930 mg/kg/day; the TD50 (mouse, strain B6C3F1, males, in drinking water, site: any site (literature study), lesion: several types, types named in the paper, dosed 90 weeks, study length 91 weeks) was 1880 mg/kg/day; the TD50 (mouse, strain B6C3F1, males, in drinking water, site: liver, lesion: hepatocellular adenoma + hepatocellular carcinoma + neoplastic nodule, dosed 90 weeks, study length 91 weeks) was 1460 mg/kg/day; the TD50 (mouse, strain B6C3F1, males, in drinking water, site: liver, lesion: hepatocellular adenoma + hepatocellular carcinoma, dosed 90 weeks, study length 91 weeks) was 1460 mg/kg/day; the TD50 (mouse, strain B6C3F1, males, in drinking water, site: liver, lesion: hepatocellular carcinoma, dosed 90 weeks, study length 91 weeks) was 1420 mg/kg/day; the TD50 (mouse, strain BDF1, females, in drinking water, site: liver, lesion: hepatocellular adenoma, dosed 104 weeks, study length 105 weeks) was 83.1 mg/kg/day. Besides, the TD50 (mouse, strain BDF1, females, in drinking water, site: liver, lesion: hepatocellular carcinoma, dosed 104 weeks, study length 105 weeks) was 404 mg/kg/day; the TD50 (mouse, strain BDF1, females, in drinking water, site: liver, lesion: several types, types named in the paper, dosed 104 weeks, study length 105 weeks) was 65.5 mg/kg/day; the TD50 (mouse, strain BDF1, females, in drinking water, site: nasal cavity, lesion: adenocarcinoma, dosed 104 weeks, study length 105 weeks) came to 72100 mg/kg/day; the TD50 (mouse, strain BDF1, males, in drinking water, site: liver, lesion: hepatocellular adenoma, dosed 104 weeks, study length 105 weeks) was 519 mg/kg/day; the TD50 (mouse, strain BDF1, males, in drinking water, site: liver, lesion: hepatocellular carcinoma, dosed 104 weeks, study length 105 weeks) was 1040 mg/kg/day; the TD50 (mouse, strain BDF1, males, in drinking water, site: liver, lesion: several types, types named in the paper, dosed 104 weeks, study length 105 weeks) was 982 mg/kg/day. The TD50 by setting is: (mouse, strain BDF1, males, in drinking water, site: nasal cavity, lesion: esthesioneuroepithelioma, dosed 104 weeks, study length 105 weeks) 60100 mg/kg/day; (rat, strain Charles River CD (Sprague-Dawley), males, in drinking water, site: nasal cavity, lesion: squamous-cell carcinoma, dosed 56 weeks, study length 69 weeks) 2950 mg/kg/day; (rat, strain F344/DuCrj, females, in drinking water, site: liver, lesion: hepatocellular adenoma, dosed 104 weeks, study length 105 weeks) 182 mg/kg/day; (rat, strain F344/DuCrj, females, in drinking water, site: liver, lesion: hepatocellular carcinoma, dosed 104 weeks, study length 105 weeks) 1120 mg/kg/day; (rat, strain F344/DuCrj, females, in drinking water, site: liver, lesion: several types, types named in the paper, dosed 104 weeks, study length 105 weeks) 167 mg/kg/day; (rat, strain F344/DuCrj, females, in drinking water, site: mammary gland, lesion: adenoma, dosed 104 weeks, study length 105 weeks) 772 mg/kg/day. For the same compound, the TD50 is 12200 mg/kg/day (rat, strain F344/DuCrj, females, in drinking water, site: nasal cavity, lesion: esthesioneuroepithelioma, dosed 104 weeks, study length 105 weeks); 1430 mg/kg/day (rat, strain F344/DuCrj, females, in drinking water, site: nasal cavity, lesion: malignant tumor, dosed 104 weeks, study length 105 weeks); 1650 mg/kg/day (rat, strain F344/DuCrj, females, in drinking water, site: nasal cavity, lesion: squamous-cell carcinoma, dosed 104 weeks, study length 105 weeks); 279 mg/kg/day (rat, strain F344/DuCrj, males, in drinking water, site: liver, lesion: hepatocellular adenoma, dosed 104 weeks, study length 105 weeks); 676 mg/kg/day (rat, strain F344/DuCrj, males, in drinking water, site: liver, lesion: hepatocellular carcinoma, dosed 104 weeks, study length 105 weeks); 189 mg/kg/day (rat, strain F344/DuCrj, males, in drinking water, site: liver, lesion: several types, types named in the paper, dosed 104 weeks, study length 105 weeks). Also, the TD50 is 3070 mg/kg/day (rat, strain F344/DuCrj, males, in drinking water, site: mammary gland, lesion: fibroadenoma, dosed 104 weeks, study length 105 weeks); 10600 mg/kg/day (rat, strain F344/DuCrj, males, in drinking water, site: nasal cavity, lesion: esthesioneuroepithelioma, dosed 104 weeks, study length 105 weeks); 1440 mg/kg/day (rat, strain F344/DuCrj, males, in drinking water, site: nasal cavity, lesion: malignant tumor, dosed 104 weeks, study length 105 weeks); 10600 mg/kg/day (rat, strain F344/DuCrj, males, in drinking water, site: nasal cavity, lesion: rhabdomyosarcoma, dosed 104 weeks, study length 105 weeks); 5270 mg/kg/day (rat, strain F344/DuCrj, males, in drinking water, site: nasal cavity, lesion: sarcoma, NOS, dosed 104 weeks, study length 105 weeks); 3490 mg/kg/day (rat, strain F344/DuCrj, males, in drinking water, site: nasal cavity, lesion: squamous-cell carcinoma, dosed 104 weeks, study length 105 weeks). The TD50 runs as follows: (rat, strain F344/DuCrj, males, in drinking water, site: peritoneum, lesion: mesothelioma, dosed 104 weeks, study length 105 weeks) 246 mg/kg/day; (rat, strain F344/DuCrj, males, in drinking water, site: subcutaneous tissue, lesion: fibroma, dosed 104 weeks, study length 105 weeks) 922 mg/kg/day; (rat, strain Osborne-Mendel, females, in drinking water, site: any site (literature study), lesion: several types, types named in the paper, dosed 110 weeks, study length 111 weeks) 40.5 mg/kg/day; (rat, strain Osborne-Mendel, females, in drinking water, site: liver + nasal turbinate, lesion: hepatocellular adenoma + squamous-cell carcinoma, dosed 110 weeks, study length 111 weeks) 126 mg/kg/day; (rat, strain Osborne-Mendel, females, in drinking water, site: liver, lesion: hepatocellular adenoma + hepatocellular carcinoma + neoplastic nodule, dosed 110 weeks, study length 111 weeks) 124 mg/kg/day; (rat, strain Osborne-Mendel, females, in drinking water, site: liver, lesion: hepatocellular adenoma, dosed 110 weeks, study length 111 weeks) 160 mg/kg/day. Further, the TD50 runs as follows: (rat, strain Osborne-Mendel, females, in drinking water, site: nasal turbinate, lesion: squamous-cell carcinoma, dosed 110 weeks, study length 111 weeks) 476 mg/kg/day; (rat, strain Osborne-Mendel, males, in drinking water, site: any site (literature study), lesion: several types, types named in the paper, dosed 110 weeks, study length 110 weeks) 114 mg/kg/day; (rat, strain Osborne-Mendel, males, in drinking water, site: liver, lesion: hepatocellular adenoma + hepatocellular carcinoma + neoplastic nodule, dosed 110 weeks, study length 110 weeks) 796 mg/kg/day; (rat, strain Osborne-Mendel, males, in drinking water, site: nasal turbinate, lesion: squamous-cell carcinoma, dosed 110 weeks, study length 110 weeks) 168 mg/kg/day; (rat, strain Sherman, both sexes, in drinking water, site: liver, lesion: hepatocellular carcinoma, dosed 104 weeks, study length 104 weeks) 2500 mg/kg/day; (rat, strain Sherman, both sexes, in drinking water, site: liver, lesion: several types, types named in the paper, dosed 104 weeks, study length 104 weeks) 2120 mg/kg/day. Further, the TD50 reads like this: (rat, strain Sherman, both sexes, in drinking water, site: nasal turbinate, lesion: squamous-cell carcinoma, dosed 104 weeks, study length 104 weeks) 15900 mg/kg/day; (rat, strain Wistar, both sexes, in drinking water, site: any site (literature study), lesion: several types, types named in the paper, dosed 63 weeks, study length 64 weeks) 690 mg/kg/day; (rat, strain Wistar, both sexes, in drinking water, site: liver, lesion: hepatoma, dosed 63 weeks, study length 64 weeks) 515 mg/kg/day.
Regarding `ClCOCCOCCl`, for the setting “mouse, strain Ha/ICR, females, i.p., site: abdomen, lesion: several types, types named in the paper, dosed 78 weeks, study length 78 weeks”, the TD50 is 4.62 mg/kg/day.
With `N#[N+]c1ccccc1`, the TD50 (hamster, strain Syrian Golden, females, by gavage, site: liver, lesion: Kupffer-cell sarcoma, dosed 90 weeks, study length 90 weeks) was 66.1 mg/kg/day (inactive); the TD50 (hamster, strain Syrian Golden, females, by gavage, site: liver, lesion: cholangioma, dosed 90 weeks, study length 90 weeks) was 293 mg/kg/day (inactive); the TD50 (hamster, strain Syrian Golden, females, by gavage, site: liver, lesion: hemangioma, dosed 90 weeks, study length 90 weeks) is 66.1 mg/kg/day (inactive); the TD50 (hamster, strain Syrian Golden, males, by gavage, site: liver, lesion: hemangioma, dosed 90 weeks, study length 90 weeks) is 293 mg/kg/day (inactive); the TD50 (mouse, strain Swiss albino, females, by gavage, site: lung, lesion: adenocarcinoma, dosed 52 weeks, study length 141 weeks) turned out to be 39.4 mg/kg/day; the TD50 (mouse, strain Swiss albino, females, by gavage, site: lung, lesion: adenoma, dosed 52 weeks, study length 141 weeks) was found to be 27.1 mg/kg/day. Also, the TD50 by setting is: (mouse, strain Swiss albino, females, by gavage, site: lung, lesion: several types, types named in the paper, dosed 52 weeks, study length 141 weeks) 16.5 mg/kg/day; (mouse, strain Swiss albino, males, by gavage, site: lung, lesion: adenoma, dosed 52 weeks, study length 129 weeks) 14.8 mg/kg/day; (mouse, strain Swiss albino, males, by gavage, site: lung, lesion: several types, types named in the paper, dosed 52 weeks, study length 129 weeks) 12.7 mg/kg/day.
Take `CCCCC/C=C\C/C=C\CCCCCCCC(=O)O[C@H](COC(=O)CCCCCCCCCCCCCCC)COP(=O)([O-])OCC[N+](C)(C)C`: where the note is “rat, strain Wistar, females, in feed, site: liver, lesion: nodular hyperplasia, dosed 104 weeks, study length 104 weeks”, the carcinogen call is “negative (inactive)”. Further, the TD50 (rat, strain Wistar, males, in feed, site: liver, lesion: cholangioma, dosed 104 weeks, study length 104 weeks) is 42200 mg/kg/day (inactive).
Regarding `CC(=O)Nc1ccc(OCC(O)CNC(C)C)cc1` (stereo unspecified), the carcinogen call was “negative (inactive)” (mouse, strain AP Alderly Park, females, several routes, site: liver, lesion: one or several types, types not named, dosed 78 weeks, study length 78 weeks); “negative (inactive)” (mouse, strain AP Alderly Park, females, several routes, site: lung, lesion: one or several types, types not named, dosed 78 weeks, study length 78 weeks); “negative (inactive)” (rat, strain Alpk:APfSD, females, in feed, site: liver, lesion: one or several types, types not named, dosed 104 weeks, study length 104 weeks); “negative (inactive)” (rat, strain Alpk:APfSD, males, in feed, site: liver, lesion: one or several types, types not named, dosed 104 weeks, study length 104 weeks). Further, the TD50 runs as follows: (mouse, strain AP Alderly Park, males, several routes, site: liver, lesion: one or several types, types not named, dosed 78 weeks, study length 78 weeks) 24300 mg/kg/day (inactive); (mouse, strain AP Alderly Park, males, several routes, site: lung, lesion: one or several types, types not named, dosed 78 weeks, study length 78 weeks) 383 mg/kg/day (inactive); (rat, strain Alpk:APfSD, males, in feed, site: pituitary gland, lesion: one or several types, types not named, dosed 104 weeks, study length 104 weeks) 23.9 mg/kg/day (inactive); (rat, strain Alpk:APfSD, males, in feed, site: testis, lesion: one or several types, types not named, dosed 104 weeks, study length 104 weeks) 194 mg/kg/day (inactive).

For the origin of these results see PubChem BioAssay AID1745844 (Carcinogenic Potency Database (CPDB), 2022).
